Earlier results in patent publication US9238073B2, “Pharmaceutical composition containing sympathomimetic amine salt and co-distillable additive” (Wyeth LLC, priority 2006, dated 2016).

Conditions: (R)-methamphetamine from reduction of (-)-pseudoephedrine

(R)-methamphetamine
psychoactivity relative to (S)-methamphetamine: one-tenth
